For the test, the target named is NR1/NR2A (Homo sapiens (Human), UniProt Q05586+Q12879). Nature of the test: FDSS Ca2+ influx inhibition assay in HEK293 cells expressing NR1/NR2A. The test is classed as cell-based. As to conditions: 3 μM glutamate, 3 μM glycine, 1 mM Ca2+. How it is done:
Cell Culture and plating: HEK293 cells expressing NR1/NR2A (Chantest, Cleveland, Ohio) were grown to 70-80% confluency as an adherent monolayer in standard tissue culture flasks at 37° C., 5% CO2 per supplier's instructions.
After induction, cell culture medium was removed and cells were rinsed once with Ca^2+ and Mg^2+-free Dulbecco's phosphate buffered saline. Cells were then removed from the flask using TrypLE™ Express (Life Technologies) according to the manufacturer's instructions and collected to 50 ml centrifuge tubes. Following two washes in Ca^2+/Mg^2+-free HBSS with 20 mM HEPES (HHnoCa), cells were counted and viability assessed using trypan blue. To load cells with Ca^2+-sensitive dye, they were resuspended in fluo-8 plus Component B (AAT Bioquest Products) diluted in HHnoCa and incubated 15 minutes at 37° C., followed by 30 minutes at room temp (in dark). Cells were then washed and resuspended in HHnoCa to remove extracellular dye and plated in 384-well plates (Falcon, uncoated) at 20,000-30,000 cells/well in a final volume of 25 μL/well.
FDSS Assay: To each well of the plate, 10 μL test compound, control (MK801) or HHnoCa buffer was added to a final concentration of 10 μM with a final concentration of DMSO of 0.1%. Following 10 minutes pre-incubation in the dark, plates are loaded onto the Hamamatsu FDSS 6000. After collecting baseline fluorescence images, 3 μM glutamate, 3 μM glycine, and 1 mM Ca^2+ in HHnoCa buffer is added to each well, and Ca^2+ is recorded for 3 minutes. Data were processed by computing ratio of fluorescence at the end of data collection to baseline fluorescence to assess degree of Ca^2+ influx inhibition relative to that observed in MK801.

Where [1] appears, read: inhibition relative to MK801, read-out: NR2A IC50.

pIC50: −log10 of the molar value. Like-named read-outs stand apart in the source and are kept apart here.

Chain of NR1/NR2A (Q12879 23-1464, other chains not shown): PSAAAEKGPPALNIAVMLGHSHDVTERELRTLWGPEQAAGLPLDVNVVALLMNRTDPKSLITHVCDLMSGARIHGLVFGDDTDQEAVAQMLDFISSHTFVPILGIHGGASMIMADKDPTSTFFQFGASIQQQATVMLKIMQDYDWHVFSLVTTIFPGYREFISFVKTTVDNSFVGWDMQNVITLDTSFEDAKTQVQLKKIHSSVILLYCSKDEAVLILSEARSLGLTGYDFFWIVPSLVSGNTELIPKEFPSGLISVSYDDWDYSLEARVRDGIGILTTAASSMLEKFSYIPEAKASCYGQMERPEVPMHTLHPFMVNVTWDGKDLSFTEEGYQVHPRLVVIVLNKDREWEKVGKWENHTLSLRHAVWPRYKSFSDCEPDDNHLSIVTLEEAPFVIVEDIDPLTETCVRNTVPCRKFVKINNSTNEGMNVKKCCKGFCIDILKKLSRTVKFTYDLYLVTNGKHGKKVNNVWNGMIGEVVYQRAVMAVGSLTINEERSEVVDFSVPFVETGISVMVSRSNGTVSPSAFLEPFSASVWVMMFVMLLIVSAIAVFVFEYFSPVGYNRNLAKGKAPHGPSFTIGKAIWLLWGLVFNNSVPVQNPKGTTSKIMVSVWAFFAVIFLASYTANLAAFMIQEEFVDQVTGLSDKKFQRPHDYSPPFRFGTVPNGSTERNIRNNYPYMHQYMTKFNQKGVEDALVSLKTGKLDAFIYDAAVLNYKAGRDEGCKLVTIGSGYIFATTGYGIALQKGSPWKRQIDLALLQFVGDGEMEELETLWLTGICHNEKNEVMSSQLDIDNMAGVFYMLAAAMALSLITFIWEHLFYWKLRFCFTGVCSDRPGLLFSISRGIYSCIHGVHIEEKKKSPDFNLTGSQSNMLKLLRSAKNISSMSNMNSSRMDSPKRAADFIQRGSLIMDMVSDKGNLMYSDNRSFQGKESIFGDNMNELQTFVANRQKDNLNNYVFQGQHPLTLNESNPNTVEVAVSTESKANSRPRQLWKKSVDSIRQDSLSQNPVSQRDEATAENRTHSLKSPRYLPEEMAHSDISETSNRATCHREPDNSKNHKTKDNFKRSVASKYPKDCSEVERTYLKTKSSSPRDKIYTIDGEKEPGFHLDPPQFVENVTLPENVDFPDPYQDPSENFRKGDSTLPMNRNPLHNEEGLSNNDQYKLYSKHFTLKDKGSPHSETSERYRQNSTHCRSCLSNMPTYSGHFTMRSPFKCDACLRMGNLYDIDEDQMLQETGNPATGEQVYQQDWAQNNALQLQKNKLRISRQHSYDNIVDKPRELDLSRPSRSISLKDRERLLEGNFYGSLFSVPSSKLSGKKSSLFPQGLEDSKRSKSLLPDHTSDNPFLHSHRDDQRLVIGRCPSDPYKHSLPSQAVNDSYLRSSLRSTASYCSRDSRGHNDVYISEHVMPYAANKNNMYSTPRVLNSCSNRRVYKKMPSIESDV

As for `Cc1ncc(CNC(=O)c2ccc(CNS(=O)(=O)c3ccc(Cl)s3)cn2)s1` [5-(5-chlorothiophene-2-sulfonamidomethyl)-N-[(2-methyl-1,3-thiazol-5-yl)methyl]pyridine-2-carboxamide], the pIC50 by setting is: under setting [1], 5.00; (read-out: Binned Activity) less than 5.00.
For `Cn1nccc1CNC(=O)c1cnc(CNS(=O)(=O)c2ccc(F)c(Cl)c2)cn1` [5-(3-chloro-4-fluorobenzenesulfon-amidomethyl)-N-[(1-methyl-1H-pyrazol-5-yl)methyl]pyrazine-2-carboxamide], in that order: 5.00 and less than 5.00.
For `O=C(NCc1nccs1)c1ccc(CNS(=O)(=O)c2ccc(F)c(Cl)c2)nc1` [6-(3-chloro-4-fluorobenzenesulfon-amidomethyl)-N-(1,3-thiazol-2-ylmethyl)pyridine-3-carboxamide], in that order: 5.00 and less than 5.00.
Take `O=C(NCc1cocn1)c1ccc(CNS(=O)(=O)c2ccc(F)c(Cl)c2)nn1` [6-(3-chloro-4-fluorobenzenesulfon-amidomethyl)-N-(1,3-oxazol-4-ylmethyl)pyridazine-3-carboxamide]: the pIC50 was 5.00 under setting [1] and less than 5.00 (read-out: Binned Activity).
For `Cc1nc(C)c(CNC(=O)c2ccc(CNS(=O)(=O)c3ccc(F)c(Cl)c3)nc2)s1` [6-(3-chloro-4-fluorobenzenesulfon-amidomethyl)-N-[(dimethyl-1,3-thiazol-5-yl)methyl]pyridine-3-carboxamide], in that order: 5.00 and less than 5.00.
On to `O=C(NC1CCS(=O)(=O)C1)c1cnc(CNS(=O)(=O)c2ccc(F)c(Cl)c2)cn1` (stereo not drawn) [5-(3-chloro-4-fluorobenzenesulfon-amidomethyl)-N-(1,1-dioxo-1λ^6-thiolan-3-yl)pyrazine-2-carboxamide], for which the pIC50 is 5.00 under setting [1] and less than 5.00 (read-out: Binned Activity).
The like results for `O=C(NCc1cncs1)c1ccc(CNS(=O)(=O)c2ccc(F)c(Cl)c2)nc1` [6-(3-chloro-4-fluorobenzenesulfon-amidomethyl)-N-(1,3-thiazol-5-ylmethyl)pyridine-3-carboxamide] were, in that order, 5.00 and less than 5.00.
Consider `COc1ccc(CNC(=O)c2ccc(CNS(=O)(=O)c3ccc(F)c(Cl)c3)nc2)cn1` [6-(3-chloro-4-fluorobenzenesulfon-amidomethyl)-N-[(6-methoxypyridin-3-yl)methyl]pyridine-3-carboxamide], for which the pIC50 reads like this: under setting [1], 5.00; (read-out: Binned Activity) less than 5.00.
With `O=C(NCc1cccnc1)c1ccc(CNS(=O)(=O)c2ccc(F)c(Cl)c2)cn1` [5-(3-chloro-4-fluorobenzenesulfon-amidomethyl)-N-(pyridin-3-ylmethyl)pyridine-2-carboxamide], under “read-out: Binned Activity”, the pIC50 was 6.00 to 7.00.
Consider `Cc1nnc(CNC(=O)c2ccc(CNS(=O)(=O)c3ccc(F)c(Cl)c3)nc2)o1` [6-(3-chloro-4-fluorobenzenesulfon-amidomethyl)-N-[(5-methyl-1,3,4-oxadiazol-2-yl)methyl]pyridine-3-carboxamide], for which the pIC50 is 5.00 under setting [1] and less than 5.00 (read-out: Binned Activity).
Turning to `Cc1ccc(CNC(=O)c2cnc(CNS(=O)(=O)c3ccc(F)c(Cl)c3)cn2)n1C` [5-(3-chloro-4-fluorobenzenesulfon-amidomethyl)-N-[(1,5-dimethyl-1H-pyrrol-2-yl)methyl]pyrazine-2-carboxamide], the pIC50 (read-out: Binned Activity) is 6.00 to 7.00.
On to `O=C(NCc1ccccn1)c1ccc(CNS(=O)(=O)c2ccc(F)c(Cl)c2)nc1` [6-(3-chloro-4-fluorobenzenesulfon-amidomethyl)-N-(pyridin-2-ylmethyl)pyridine-3-carboxamide], for which the pIC50 runs as follows: under setting [1], 5.00; (read-out: Binned Activity) less than 5.00.
For `O=C(NCc1cocn1)c1ccc(CNS(=O)(=O)c2ccc(F)c(Cl)c2)cn1` [5-(3-chloro-4-fluorobenzenesulfon-amidomethyl)-N-(1,3-oxazol-4-ylmethyl)pyridine-2-carboxamide], in that order: 5.00 and less than 5.00.
For the molecule `CC(NC(=O)c1ccc(CNS(=O)(=O)c2ccc(F)c(Cl)c2)nn1)c1ccco1` (stereo not drawn) [6-(3-chloro-4-fluorobenzenesulfon-amidomethyl)-N-[1-(furan-2-yl)ethyl]pyridazine-3-carboxamide], the pIC50 runs as follows: under setting [1], 5.00; (read-out: Binned Activity) less than 5.00.
For `O=C(NCc1ccncn1)c1ccc(CNS(=O)(=O)c2ccc(F)c(Cl)c2)cn1` [5-(3-chloro-4-fluorobenzenesulfon-amidomethyl)-N-(pyrimidin-4-ylmethyl)pyridine-2-carboxamide], in that order: 5.00 and less than 5.00.
With `Cn1cc(CNC(=O)c2ccc(CNS(=O)(=O)c3ccc(F)c(Cl)c3)cn2)cn1` [5-(3-chloro-4-fluorobenzenesulfon-amidomethyl)-N-[(1-methyl-1H-pyrazol-4-yl)methyl]pyridine-2-carboxamide], the pIC50 (read-out: Binned Activity) was 5.00 to 6.00.
Same read-out and setting: to `O=C(NCc1cncc(F)c1)c1cnc(CNS(=O)(=O)c2ccc(F)c(Cl)c2)cn1` [5-(3-chloro-4-fluorobenzenesulfon-amidomethyl)-N-[(5-fluoropyridin-3-yl)methyl]pyrazine-2-carboxamide] belongs 5.00 to 6.00.
Same read-out and setting: to `Cc1ncc(CNC(=O)c2ccc(CNS(=O)(=O)c3ccc(F)c(F)c3)cn2)s1` [5-(3,4-difluorobenzenesulfon-amidomethyl)-N-[(2-methyl-1,3-thiazol-5-yl)methyl]pyridine-2-carboxamide] belongs 6.00 to 7.00.
`O=C(NCc1cnccn1)c1ccc(CNS(=O)(=O)c2ccc(F)c(Cl)c2)nn1` [6-(3-chloro-4-fluorobenzenesulfon-amidomethyl)-N-(pyrazin-2-ylmethyl)pyridazine-3-carboxamide]: the pIC50 is 5.00 under setting [1] and less than 5.00 (read-out: Binned Activity).
For `O=C(NCc1ccc(Cl)c(F)c1)c1ccc(CNS(=O)(=O)c2ccc(F)c(Cl)c2)cn1` [N-[(4-chloro-3-fluorophenyl)methyl]-5-(3-chloro-4-fluorobenzenesulfon-amidomethyl)pyridine-2-carboxamide], in that order: 5.00 and less than 5.00.
The like results for `O=C(NCc1ncc(C(F)(F)F)cc1Cl)c1ccc(CNS(=O)(=O)c2ccc(F)c(Cl)c2)nc1` [6-(3-chloro-4-fluorobenzenesulfon-amidomethyl)-N-{[3-chloro-5-(trifluoromethyl)pyridin-2-yl]methyl}pyridine-3-carboxamide] were, in that order, 5.00 and less than 5.00.
Consider `Cc1csc(CNC(=O)c2ccc(CNS(=O)(=O)c3ccc(F)c(Cl)c3)cn2)n1` [5-(3-chloro-4-fluorobenzenesulfon-amidomethyl)-N-[(4-methyl-1,3-thiazol-2-yl)methyl]pyridine-2-carboxamide], for which the pIC50 under setting [1] is 5.00 and the pIC50 (read-out: Binned Activity) is less than 5.00.
For `Cc1ncc(CNC(=O)c2cnc(CNS(=O)(=O)c3ccc(Oc4ccccc4)nc3)cn2)s1` [N-[(2-methyl-1,3-thiazol-5-yl)methyl]-5-(6-phenoxypyridine-3-sulfonamidomethyl) pyrazine-2-carboxamide], in that order: 5.00 and less than 5.00.
For `Cc1ncc(CNC(=O)c2ccc(CNS(=O)(=O)c3cc4ccccc4s3)cn2)s1` [5-(1-benzothiophene-2-sulfonamidomethyl)-N-[(2-methyl-1,3-thiazol-5-yl)methyl]pyridine-2-carboxamide], the pIC50 is 5.00 under setting [1] and less than 5.00 (read-out: Binned Activity).
The like results for `Cc1nnc(CNC(=O)c2ccc(CNS(=O)(=O)c3ccc(F)c(Cl)c3)nc2)s1` [6-(3-chloro-4-fluorobenzenesulfon-amidomethyl)-N-[(5-methyl-1,3,4-thiadiazol-2-yl)methyl]pyridine-3-carboxamide] were, in that order, 5.00 and less than 5.00.
Consider `Cc1ncc(CNC(=O)c2cnc(CNS(=O)(=O)c3ccc(F)cc3)cn2)s1` [5-(4-fluorobenzenesulfon-midomethyl)-N-[(2-methyl-1,3-thiazol-5-yl)methyl]pyrazine-2-carboxamide], for which, for the setting “read-out: Binned Activity”, the pIC50 was 5.00 to 6.00.
Regarding `O=C(NCc1cncs1)c1cnc(CNS(=O)(=O)c2ccc(F)c(Cl)c2)cn1` [5-(3-chloro-4-fluorobenzenesulfon-amidomethyl)-N-(1,3-thiazol-5-ylmethyl)pyrazine-2-carboxamide], under “read-out: Binned Activity”, the pIC50 is 6.00 to 7.00.
For `O=C(NCc1cncnc1)c1ccc(CNS(=O)(=O)c2ccc(F)c(Cl)c2)nn1` [6-(3-chloro-4-fluorobenzenesulfon-amidomethyl)-N-(pyrimidin-5-ylmethyl)pyridazine-3-carboxamide], the pIC50 reads like this: under setting [1], 5.00; (read-out: Binned Activity) less than 5.00.
The like results for `Cc1ncc(CNC(=O)c2ccc(CNS(=O)(=O)c3cc(Cl)ccc3F)cn2)s1` [5-(5-chloro-2-fluorobenzenesulfon-amidomethyl)-N-[(2-methyl-1,3-thiazol-5-yl)methyl]pyridine-2-carboxamide] were, in that order, 5.00 and less than 5.00.

Values taken from US9963434B2, “N-arylmethyl sulfonamide negative modulators of NR2A” (LUC THERAPEUTICS, priority 2013, dated 2018).
